{
  "source": "paper PMC12045974",
  "about": "“T cell toxicity induced by tigecycline binding to the mitochondrial ribosome” (Nature Communications, 2025)",
  "key": {"[1]": {"system": "Jurkat T cells", "assay": "Cell viability assay (CCK-8), Jurkat T cells", "format": "cell-based, human", "settings": "for cell vialibity normalized to Vehicle (DMSO): in % (unit assumed)", "procedure,_shortened": "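This CCK-8 viability assay used Jurkat T cells seeded at 6000 per well and grown in supplemented RPMI-1640, 100 μl per well. Antibiotic stocks in DMSO were diluted in medium to give 9 concentrations, and untreated wells received matching DMSO. After treatment, cells were incubated with 10% CCK-8 for 3 h. Results were normalized to vehicle, technical repeats were plotted as mean ± SEM, and IC50 values were derived.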"}, "[2]": {"system": "PBMCs", "assay": "Cell viability assay (CCK-8), PBMCs", "format": "cell-based, human", "settings": "Homo sapiens, PBMC, 72 h, PBMCs, read-out: cell vialibity normalized to Vehicle (DMSO)", "experimental": "Buffy coats were ordered from anonymous blood donors at […]. […] Cells were seeded in 96-well plates ranging from 2000 to 15,000 cells per well depending on different cell lines and treated with antibiotics in serial dilutions for 72 h (120 h for the preliminary assays) in a humidified incubator (37 °C, 5% CO2) in 100 μl medium (DMEM with 10% FBS, 2.05 mM L-glutamine (Sigma) for Hek293 and Hela; RPMI-1640 with 10% FBS, 2.05 mM L-glutamine (Sigma), and 55 μM 2-ME (Gibco) for Jurkat T cells and PBMCs). Based on preliminary tests, the number of cells per well was optimized to 2000 for Hela and Hek293, 6000 for Jurkat T cells, and 15,000 for PBMCs. The stocks of antibiotics were prepared by dissolving in DMSO. As control, the same amount of DMSO was added to the non-treated groups. Serial drug dilutions were prepared in the corresponding medium to provide a total of 9 concentrations up to 300 μM for tetracyclines and up to 900 μM for additional bacterial protein synthesis inhibitors. After drug treatment, 10% CCK-8 (Cell Counting Kit-8, Sigma Aldrich) (10 μl per well) of the total volume was added to the cells and incubated for 1-4 h depending on cell lines (1 h for Hela and Hek293; 3 h for Jurkat T cells; 4 h for PBMCs) before the evaluation of the effect of antibiotics on cell viability. […] Results were visually confirmed under the light microscope. Each treatment was performed in technical repeats. Dose-response curves were plotted, mean ± SEM was shown, and half maximal inhibitory concentration (IC50) values were calculated in GraphPad Prism."}, "[3]": {"system": "mitochondrial translation", "assay": "35S metabolic labeling, de novo mitochondrial translation assay in Jurkat T cells", "format": "cell-based, human", "settings": "5 μM, 18 h of treatment", "experimental": "Jurkat T cells were seeded in 6-well plates at a density of 1 million cells/ml and cultured with different concentrations of antibiotics for 18 h in RPMI-1640 medium (with 10% FBS, 2.05 mM L-glutamine (Sigma), and 55 μM 2-ME (Gibco)). After centrifugation, cells were incubated twice for 5 min at 37 °C in Cys-/Met-free medium (DMEM, high glucose, no glutamine, no methionine, no cysteine, supplemented with 10% dialyzed fetal bovine serum, 1× GlutaMax, and sodium pyruvate), followed by 20 min incubation at 37 °C in Cys-/Met-free medium supplemented with 100 µg/ml emetine to inhibit cytosolic translation (only for mitochondrial translation groups). Subsequently, 1 ml Cys-/Met-free medium supplemented with 200 (for cytosolic translation) or 400 µCi (for mitochondrial translation) of EasyTag EXPRESS [^35S] protein labeling mix (methionine and cysteine) (Perkin Elmer) were added to each sample and incubated for 20 min at 37 °C, 5% CO2. Following labeling, cells were washed three times with 1 ml PBS, harvested by centrifugation (400 × g, 10 min, 4 °C), and stored at −20 °C. Cells were lysed by resuspension in 30 µl PBS supplemented with a Complete EDTA-free protease inhibitor cocktail and 50 U Benzonase nuclease (Sigma) and by application of one freeze-thaw cycle. Protein contents were determined by Pierce BCA assay (Thermo Fisher). […]"}, "[4]": {"system": "HeLa cells", "assay": "Cell viability assay (CCK-8), HeLa cells", "format": "cell-based", "settings": "in % (unit assumed)", "experimental": "Cells were seeded in 96-well plates ranging from 2000 to 15,000 cells per well depending on different cell lines and treated with antibiotics in serial dilutions for 72 h (120 h for the preliminary assays) in a humidified incubator (37 °C, 5% CO2) in 100 μl medium (DMEM with 10% FBS, 2.05 mM L-glutamine (Sigma) for Hek293 and Hela; RPMI-1640 with 10% FBS, 2.05 mM L-glutamine (Sigma), and 55 μM 2-ME (Gibco) for Jurkat T cells and PBMCs). Based on preliminary tests, the number of cells per well was optimized to 2000 for Hela and Hek293, 6000 for Jurkat T cells, and 15,000 for PBMCs. The stocks of antibiotics were prepared by dissolving in DMSO. As control, the same amount of DMSO was added to the non-treated groups. Serial drug dilutions were prepared in the corresponding medium to provide a total of 9 concentrations up to 300 μM for tetracyclines and up to 900 μM for additional bacterial protein synthesis inhibitors. After drug treatment, 10% CCK-8 (Cell Counting Kit-8, Sigma Aldrich) (10 μl per well) of the total volume was added to the cells and incubated for 1–4 h depending on cell lines (1 h for Hela and Hek293; 3 h for Jurkat T cells; 4 h for PBMCs) before the evaluation of the effect of antibiotics on cell viability. […] Results were visually confirmed under the light microscope. Each treatment was performed in technical repeats. Dose-response curves were plotted, mean ± SEM was shown, and half maximal inhibitory concentration (IC50) values were calculated in GraphPad Prism."}},
  "note": "Values joined by “and” are separate entries in the source; they are usually repeats but may differ in a detail not shown here. Equal entries are not always repeated. Where two headings read alike, the source gives them in different places.",
  "data": [
    {"smiles": "C[C@H]1c2cccc(O)c2C(=O)C2=C(O)[C@]3(O)C(=O)C(C(N)=O)=C(O)[C@@H](N(C)C)[C@@H]3[C@@H](O)[C@@H]21", "note": "[Doxycycline, doxycycline]", "values": [
      {"measurement": "IC50", "setting": "[1]; Homo sapiens, 120 h, Jurkat T cells, after 5 days, read-out: IC50 (cell survival)", "result": 6.93, "unit": "µM"},
      {"measurement": "cell vialibity normalized to Vehicle (DMSO)", "setting": "[1]; Jurkat 3d, dose 1 μM", "result": "102.781 and 111.139 and 99.3878 and 96.4732 and 90.2582"},
      {"measurement": "cell vialibity normalized to Vehicle (DMSO)", "setting": "[1]; Jurkat 3d, dose 5 μM", "result": "115.784 and 120.149 and 111.073 and 98.3364 and 101.664"},
      {"measurement": "cell vialibity normalized to Vehicle (DMSO)", "setting": "[1]; Jurkat 3d, dose 10 μM", "result": "38.4083 and 33.5773 and 30.3966 and 27.7083 and 36.9178"},
      {"measurement": "cell vialibity normalized to Vehicle (DMSO)", "setting": "[1]; Jurkat 3d, dose 50 μM", "result": "15.6109 and 16.1964 and 17.4075 and 16.8885 and 14.799"},
      {"measurement": "cell vialibity normalized to Vehicle (DMSO)", "setting": "[1]; Jurkat 3d, dose 100 μM", "result": "22.9705 and 21.6928 and 21.7195 and 21.0407 and 21.5331"},
      {"measurement": "cell vialibity normalized to Vehicle (DMSO)", "setting": "[1]; Jurkat 5d, dose 1 μM", "result": "114.324 and 76.849 and 78.0026 and 73.9947 and 75.2933"},
      {"measurement": "cell vialibity normalized to Vehicle (DMSO)", "setting": "[1]; Jurkat 5d, dose 5 μM", "result": "77.1127 and 72.762 and 88.7937 and 109.835 and 79.8088"},
      {"measurement": "cell vialibity normalized to Vehicle (DMSO)", "setting": "[1]; Jurkat 5d, dose 10 μM", "result": "12.7884 and 10.534 and 11.8194 and 11.8853 and 12.2149"},
      {"measurement": "cell vialibity normalized to Vehicle (DMSO)", "setting": "[1]; Jurkat 5d, dose 50 μM", "result": "9.394 and 7.97 and 7.877 and 8.029 and 7.9499"},
      {"measurement": "cell vialibity normalized to Vehicle (DMSO)", "setting": "[1]; Jurkat 5d, dose 100 μM", "result": "12.3797 and 14.0541 and 16.7699 and 13.5333 and 13.3553"},
      {"measurement": "cell vialibity normalized to Vehicle (DMSO)", "setting": "[1]; Jurkat, 72 h, dose 0.0457247 μM, Fig. 1A", "result": "104.061 and 104.425 and 103.549"},
      {"measurement": "cell vialibity normalized to Vehicle (DMSO)", "setting": "[1]; Jurkat, 72 h, dose 0.137174 μM, Fig. 1A", "result": "102.734 and 100.282 and 102.099"},
      {"measurement": "cell vialibity normalized to Vehicle (DMSO)", "setting": "[1]; Jurkat, 72 h, dose 0.411523 μM, Fig. 1A", "result": "102.372 and 108.487 and 106.988"},
      {"measurement": "cell vialibity normalized to Vehicle (DMSO)", "setting": "[1]; Jurkat, 72 h, dose 1.23457 μM, Fig. 1A", "result": "101.608 and 103.54 and 101.759"},
      {"measurement": "cell vialibity normalized to Vehicle (DMSO)", "setting": "[1]; Jurkat, 72 h, dose 3.7037 μM, Fig. 1A", "result": "101.93 and 103.62 and 98.3642"},
      {"measurement": "cell vialibity normalized to Vehicle (DMSO)", "setting": "[1]; Jurkat, 72 h, dose 11.1111 μM, Fig. 1A", "result": "87.2939 and 95.2132 and 89.0432"},
      {"measurement": "cell vialibity normalized to Vehicle (DMSO)", "setting": "[1]; Jurkat, 72 h, dose 33.3333 μM, Fig. 1A", "result": "14.5557 and 15.5672 and 13.1235"},
      {"measurement": "cell vialibity normalized to Vehicle (DMSO)", "setting": "[1]; Jurkat, 72 h, dose 100 μM, Fig. 1A", "result": "5.107 and 4.7868 and 3.556"},
      {"measurement": "viability at 0.0457247 µM", "setting": "[2]; dose 0.0457247 μM, Fig. 1A", "result": 105, "unit": "%"},
      {"measurement": "viability at 0.137174 µM", "setting": "[2]; dose 0.137174 μM, Fig. 1A", "result": 100, "unit": "%"},
      {"measurement": "viability at 0.411523 µM", "setting": "[2]; Fig. 1A", "result": 101, "unit": "%"},
      {"measurement": "viability at 0.411523 µM", "setting": "[2]; Fig. 1B", "result": 103, "unit": "%"},
      {"measurement": "viability at 3.7037 µM", "setting": "[2]; Fig. 1A", "result": 103, "unit": "%"},
      {"measurement": "viability at 3.7037 µM", "setting": "[2]; Fig. 1B", "result": 135, "unit": "%"},
      {"measurement": "viability at 33.3333 µM", "setting": "[2]; Fig. 1A", "result": 89.9, "unit": "%"},
      {"measurement": "viability at 33.3333 µM", "setting": "[2]; Fig. 1B", "result": 19.7, "unit": "%"},
      {"measurement": "viability at 100 µM", "setting": "[2]; dose 100 μM, Fig. 1A", "result": 34.7, "unit": "%"},
      {"measurement": "inhibition of mitochondrial translation", "setting": "[3]", "result": "weaker inhibition"},
      {"measurement": "cell vialibity normalized to Vehicle (DMSO)", "setting": "[4]; Hela 3d, dose 1 μM", "result": "90.6648 and 96.338 and 89.6672 and 89.6605 and 88.6496"},
      {"measurement": "cell vialibity normalized to Vehicle (DMSO)", "setting": "[4]; Hela 3d, dose 5 μM", "result": "84.5992 and 86.2752 and 82.4709 and 76.6381 and 79.4714"},
      {"measurement": "cell vialibity normalized to Vehicle (DMSO)", "setting": "[4]; Hela 3d, dose 10 μM", "result": "79.4248 and 81.7526 and 84.3598 and 79.9369 and 77.0704"},
      {"measurement": "cell vialibity normalized to Vehicle (DMSO)", "setting": "[4]; Hela 3d, dose 50 μM", "result": "73.5987 and 75.9863 and 80.8614 and 86.3816 and 72.8139"},
      {"measurement": "cell vialibity normalized to Vehicle (DMSO)", "setting": "[4]; Hela 3d, dose 100 μM", "result": "66.9345 and 67.3003 and 64.2675 and 62.1126 and 67.4466"},
      {"measurement": "cell vialibity normalized to Vehicle (DMSO)", "setting": "[4]; Hela 5d, dose 1 μM", "result": "99.6093 and 93.5325 and 94.7977 and 102.368 and 101.019"},
      {"measurement": "cell vialibity normalized to Vehicle (DMSO)", "setting": "[4]; Hela 5d, dose 5 μM", "result": "109.557 and 87.6871 and 94.9961 and 97.211 and 96.619"},
      {"measurement": "cell vialibity normalized to Vehicle (DMSO)", "setting": "[4]; Hela 5d, dose 10 μM", "result": "94.5723 and 89.5534 and 92.3875 and 106.137 and 99.0323"},
      {"measurement": "cell vialibity normalized to Vehicle (DMSO)", "setting": "[4]; Hela 5d, dose 50 μM", "result": "75.251 and 76.5432 and 75.1938 and 78.2863 and 73.7483"},
      {"measurement": "cell vialibity normalized to Vehicle (DMSO)", "setting": "[4]; Hela 5d, dose 100 μM", "result": "73.589 and 66.6556 and 71.8609 and 76.0624 and 69.5949"}
    ]}
  ]
}
